Results reported in EPA's ToxValDB 9.5.
Values joined by “and” are separate entries in the source; they are usually repeats but may differ in a detail not shown here. Equal values may be shown once.

Tests used:
Oryctolagus sp. = conditions: duration: 13 days, oral, gavage, New Zealand
Mus musculus [1] = conditions: acute; oral; BALB/cAnCr
Rattus norvegicus [2] = test system: Rattus norvegicus
Mus musculus [3] = experiment: LD10; higher = less toxic; conditions: acute; oral; BALB/cAnCr
Rattus norvegicus [4] = conditions: neurological
Gallus sp. [5] = conditions: subchronic; duration: 90 days; oral; F; ataxia, delayed neurotoxicity and weight loss
Gallus sp. [6] = conditions: subchronic; duration: 3 months; oral; capsule; Nervous system: Ataxia + Nervous system: Delayed neurotoxicity + Whole body: Decreased weight
Rattus norvegicus [7] = experiment: FEL; higher = less toxic; conditions: reproduction developmental; duration: 54 days; oral; gavage; F; Wistar; generation: P0; P0: Whole Body: Mortality
Rattus norvegicus [8] = conditions: oral, gavage
[9] = developmental, duration: 10 days, oral, gavage, Crj:CD
[10] = developmental, duration: 54 days, M/F, Wistar, generation: F1, F1: Developmental: Whole Body: Dams with Stillborn Pups + F1: Developmental: Whole Body: External Abnormalities + F1: Developmental: Whole …
[11] = developmental, duration: 54 days, generation: F1, F1: Developmental: Whole Body: Dams with Liveborn Pups
[12] = reproduction developmental, duration: 28 days, M, Wistar, generation: P0, P0: Reproductive: Reproductive Organs: Reproductive Organ Histopathology + P0: Reproductive: Whole Body: Copulation Index
[13] = reproduction developmental, duration: 28 days, M, Wistar, generation: P0, P0: Whole Body: Copulation Index
[14] = reproduction developmental, duration: 54 days, F, Wistar, generation: P0, P0: Developmental: Uterus: Implantation + P0: General Toxicity: Whole Body: Clinical Observations + P0: General Toxicity: Whole Body: …
[15] = reproduction developmental, duration: 54 days, F, Wistar, generation: P0, P0: Reproductive: Reproductive Organs: Reproductive Organ Histopathology + P0: Reproductive: Whole Body: Copulation Index + P0: Reproductive…
[16] = reproduction developmental, duration: 54 days, F, Wistar, generation: P0, P0: Reproductive: Whole Body: Length of Gestation
[17] = reproduction developmental, duration: 54 days, F, Wistar, generation: P0, P0: Whole Body: Clinical Observations + P0: Whole Body: Maternal Body Weight + P0: Whole Body: Maternal Body Weight Change
[18] = reproduction developmental, duration: 54 days, F, Wistar, generation: P0, P0: Whole Body: Copulation Index
[19] = reproduction developmental, duration: 54 days, F, Wistar, generation: P0, P0: Whole Body: Length of Gestation + P0: Whole Body: Mortality
[20] = reproduction developmental, duration: 54 days, M/F, Wistar, generation: F1, F1: Whole Body: Litter Weight
[21] = short-term, duration: 28 days, M, Wistar, Adrenal: Adrenal Gland Histopathology + Dermal: Ruffled Fur + Liver: Liver Histopathology + Nerve: Nervous Tissue Histopathology + …
[22] = short-term, duration: 28 days, M, Wistar, Adrenal: Adrenal Gland Weight, Relative + Liver: Liver Weight, Absolute + Lung: Lung Histopathology + Lung: Respiration Distress + Thymus: …
[23] = short-term, duration: 28 days, M, Wistar, Endocrine: Adrenal: Adrenal Gland Histopathology + Endocrine: Adrenal: Adrenal Gland Weight, Absolute + Endocrine: Adrenal: Adrenal Gland …
[24] = short-term, duration: 28 days, M, Wistar, Other Systems: Eye: Ophthalmology + Other Systems: Lung: Lung Histopathology + Other Systems: Lung: Respiration Distress
[25] = subchronic, duration: 54 days, F, Wistar, Adrenal: Adrenal Gland Histopathology + Liver: Liver Histopathology + Nerve: Nervous Tissue Histopathology + Whole Body: Function …
[26] = subchronic, duration: 54 days, F, Wistar, Dermal: Ruffled Fur + Lung: Lung Histopathology + Lung: Respiration Distress + Peripheral Nervous System: Paresis + Thymus: Thymus …
[27] = subchronic, duration: 54 days, F, Wistar, Endocrine: Adrenal: Adrenal Gland Histopathology + Endocrine: Adrenal: Adrenal Gland Weight, Absolute + Endocrine: Adrenal: Adrenal Gland …
[28] = subchronic, duration: 54 days, F, Wistar, Other Systems: Eye: Ophthalmology + Other Systems: Lung: Lung Histopathology + Other Systems: Lung: Respiration Distress

CNC=O [N-Methylformamide]
LOAEL (Oryctolagus sp.; developmental): 50 mg/kg-day
NOAEL (Oryctolagus sp.; developmental): 10 mg/kg-day
LOAEL (Oryctolagus sp.; reproduction developmental, F): 50 mg/kg-day
NOAEL (Oryctolagus sp.; reproduction developmental, F): 10 mg/kg-day
LD50 (Mus musculus [1]): 2600 mg/kg
LD50 (Rattus norvegicus [2]; acute, oral): 4000 mg/kg
LOAEL (Rattus norvegicus [2]; [9]): 75 mg/kg-day
NOAEL (Rattus norvegicus [2]; [9]): 10 mg/kg-day
NOAEL (Rattus norvegicus [2]; reproduction developmental, duration: 10 days, inhalation, F, Crl: CD BR): 36.2 mg/m3
NOAEL (Rattus norvegicus [2]; short-term, duration: 2 weeks, inhalation, M, Crl:CD(SD)): 0.12 mg/L
LD10 (Mus musculus [3]): 1800 mg/kg

CCCCSP(=O)(SCCCC)SCCCC [Tribufos]
NOAEL (Rattus norvegicus [4]; reproduction developmental, duration: 364 days, oral, diet, M, Sprague-Dawley): 0.28 mg/kg-day
NOAEL (Rattus norvegicus [4]; subchronic, duration: 13 weeks, inhalation, head only, M/F, Wistar): 2.43 mg/m3
LOAEL (Gallus sp. [5]): 0.5 mg/kg-day
NOEL (Gallus sp. [5]): 0.1 mg/kg-day
LC50 (Rattus norvegicus [2]; acute, Inhalation, Sprague-Dawley): ≥ 2460 mg/m3 and ≤ 4650 mg/m3
NOEL (Gallus sp. [6]): 0.1 mg/kg-day

CCO[Si](CCC(F)(F)C(F)(F)C(F)(F)C(F)(F)C(F)(F)C(F)(F)F)(OCC)OCC [Triethoxy((perfluorohexyl)ethyl)silane]
FEL (Rattus norvegicus [7]): 125 mg/kg-day
LOAEL (Rattus norvegicus [8]; [10]): 100 mg/kg-day
NOAEL (Rattus norvegicus [8]; [10]): 50 mg/kg-day
LOAEL (Rattus norvegicus [8]; [11]): 100 mg/kg-day
NOAEL (Rattus norvegicus [8]; [11]): 50 mg/kg-day
NEL (Rattus norvegicus [8]; reproduction developmental, duration: 28 days, M, Wistar, generation: P0, P0: Reproductive Organs: Reproductive Organ Histopathology): 125 mg/kg-day
LOAEL (Rattus norvegicus [8]; [12]): 125 mg/kg-day
NOAEL (Rattus norvegicus [8]; [12]): 100 mg/kg-day
LEL (Rattus norvegicus [8]; [13]): 125 mg/kg-day
NEL (Rattus norvegicus [8]; [13]): 100 mg/kg-day
LOAEL (Rattus norvegicus [8]; [14]): 100 mg/kg-day
NOAEL (Rattus norvegicus [8]; [14]): 50 mg/kg-day
NEL (Rattus norvegicus [8]; reproduction developmental, duration: 54 days, F, Wistar, generation: P0, P0: Reproductive Organs: Reproductive Organ Histopathology + P0: Whole Body: Fertility Index): 125 mg/kg-day
LOAEL (Rattus norvegicus [8]; [15]): 125 mg/kg-day
NOAEL (Rattus norvegicus [8]; [15]): 100 mg/kg-day
LOAEL (Rattus norvegicus [8]; [16]): 125 mg/kg-day
NOAEL (Rattus norvegicus [8]; [16]): 100 mg/kg-day
NEL (Rattus norvegicus [8]; reproduction developmental, duration: 54 days, F, Wistar, generation: P0, P0: Uterus: Implantation): 125 mg/kg-day
LEL (Rattus norvegicus [8]; [17]): 100 mg/kg-day
NEL (Rattus norvegicus [8]; [17]): 50 mg/kg-day
LEL (Rattus norvegicus [8]; [18]): 125 mg/kg-day
NEL (Rattus norvegicus [8]; [18]): 100 mg/kg-day
LEL (Rattus norvegicus [8]; [19]): 125 mg/kg-day
NEL (Rattus norvegicus [8]; [19]): 100 mg/kg-day
NEL (Rattus norvegicus [8]; reproduction developmental, duration: 54 days, M/F, Wistar, generation: F1, F1: Whole Body: Dams with Liveborn Pups): 125 mg/kg-day
NEL (Rattus norvegicus [8]; reproduction developmental, duration: 54 days, M/F, Wistar, generation: F1, F1: Whole Body: Dams with Stillborn Pups + F1: Whole Body: External Abnormalities + F1: Whole Body: Litter Size + F1: Whole Body: Male Pups …): 125 mg/kg-day
LEL (Rattus norvegicus [8]; [20]): 100 mg/kg-day
NEL (Rattus norvegicus [8]; [20]): 50 mg/kg-day
LEL (Rattus norvegicus [8]; [21]): 100 mg/kg-day
NEL (Rattus norvegicus [8]; [21]): 50 mg/kg-day
NEL (Rattus norvegicus [8]; short-term, duration: 28 days, M, Wistar, Adrenal: Adrenal Gland Weight, Absolute + Blood: Hematology, Unspecified + Eye: Ophthalmology, Unspecified + Kidney: Urinalysis, Unspecified…): 150 mg/kg-day
LEL (Rattus norvegicus [8]; [22]): 150 mg/kg-day
NEL (Rattus norvegicus [8]; [22]): 100 mg/kg-day
LOAEL (Rattus norvegicus [8]; [23]): 100 mg/kg-day
NOAEL (Rattus norvegicus [8]; [23]): 50 mg/kg-day
NOAEL (Rattus norvegicus [8]; short-term, duration: 28 days, M, Wistar, Hematologic: Blood: Hematology, Unspecified + Urinary: Kidney: Urinalysis): 125 mg/kg-day
LOAEL (Rattus norvegicus [8]; [24]): 125 mg/kg-day
NOAEL (Rattus norvegicus [8]; [24]): 100 mg/kg-day
LEL (Rattus norvegicus [8]; [25]): 100 mg/kg-day
NEL (Rattus norvegicus [8]; [25]): 50 mg/kg-day
NEL (Rattus norvegicus [8]; subchronic, duration: 54 days, F, Wistar, Adrenal: Adrenal Gland Weight, Absolute + Adrenal: Adrenal Gland Weight, Relative + Blood: Hematology, Unspecified + Eye: Ophthalmology, …): 150 mg/kg-day
LEL (Rattus norvegicus [8]; [26]): 150 mg/kg-day
NEL (Rattus norvegicus [8]; [26]): 100 mg/kg-day
LOAEL (Rattus norvegicus [8]; [27]): 100 mg/kg-day
NOAEL (Rattus norvegicus [8]; [27]): 50 mg/kg-day
NOAEL (Rattus norvegicus [8]; subchronic, duration: 54 days, F, Wistar, Hematologic: Blood: Hematology, Unspecified + Urinary: Kidney: Urinalysis): 125 mg/kg-day
LOAEL (Rattus norvegicus [8]; [28]): 125 mg/kg-day
NOAEL (Rattus norvegicus [8]; [28]): 100 mg/kg-day
LEL (Rattus norvegicus [8]; subchronic, duration: 54 days, F, Wistar, Whole Body: Maternal Body Weight): 50 mg/kg-day
